For one experiment, the system named is MDA-MB-231 cell line. The experiment can be described thus: MDA-MB-231 cancer cell proliferation inhibition (Cell Titer-Glo). Format: cell-based. The following applies: Homo sapiens, MDA-MB-231 triple-negative breast cancer cell line, 72 hours. The gist of the method:
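GI50 comes from CellTiter-Glo luminescence, read 10 min after reagent addition at RT, following 72 h compound treatment. Eleven concentrations were used (⅓ steps, highest 10 μM final) on 2000 cells/well. MDA-MB-231 and MDA-MB-468 were grown in DMEM, SHP-77 in RPMI.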
(In general: ATP-based viability assays read luminescence as a measure of living cells.)

Experiment [1] has as its target T1, human GST-DYRK1A (full length) (Homo sapiens, UniProt Q13627).
T1 construct: purified human GST-DYRK1A (full length, Thermo scientifics) enzyme; GST; purchased Thermo scientifics
The experiment in a line: GST-DYRK1A enzyme inhibition, ADP-Glo kinase assay. The format is biochemical. The following applies: read-out: DYRK1 IC50. The gist of the method: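 ADP-Glo luminescence quantified kinase activity after a 1 h, 25° C reaction of 10 ng full-length GST-tagged human DYRK1A, substrate and 10 uM ATP in Tris-HCl buffer pH 7.4 with MgCl2, BSA and DTT. Triplicate IC50 values (nM) calculated relative to untreated solvent control.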
On the technique in general: In ADP-Glo the light output rises with the ADP produced.

The target in a further experiment is T2, TTK (Homo sapiens, UniProt P33981).
T2 sequence (P33981 1-857): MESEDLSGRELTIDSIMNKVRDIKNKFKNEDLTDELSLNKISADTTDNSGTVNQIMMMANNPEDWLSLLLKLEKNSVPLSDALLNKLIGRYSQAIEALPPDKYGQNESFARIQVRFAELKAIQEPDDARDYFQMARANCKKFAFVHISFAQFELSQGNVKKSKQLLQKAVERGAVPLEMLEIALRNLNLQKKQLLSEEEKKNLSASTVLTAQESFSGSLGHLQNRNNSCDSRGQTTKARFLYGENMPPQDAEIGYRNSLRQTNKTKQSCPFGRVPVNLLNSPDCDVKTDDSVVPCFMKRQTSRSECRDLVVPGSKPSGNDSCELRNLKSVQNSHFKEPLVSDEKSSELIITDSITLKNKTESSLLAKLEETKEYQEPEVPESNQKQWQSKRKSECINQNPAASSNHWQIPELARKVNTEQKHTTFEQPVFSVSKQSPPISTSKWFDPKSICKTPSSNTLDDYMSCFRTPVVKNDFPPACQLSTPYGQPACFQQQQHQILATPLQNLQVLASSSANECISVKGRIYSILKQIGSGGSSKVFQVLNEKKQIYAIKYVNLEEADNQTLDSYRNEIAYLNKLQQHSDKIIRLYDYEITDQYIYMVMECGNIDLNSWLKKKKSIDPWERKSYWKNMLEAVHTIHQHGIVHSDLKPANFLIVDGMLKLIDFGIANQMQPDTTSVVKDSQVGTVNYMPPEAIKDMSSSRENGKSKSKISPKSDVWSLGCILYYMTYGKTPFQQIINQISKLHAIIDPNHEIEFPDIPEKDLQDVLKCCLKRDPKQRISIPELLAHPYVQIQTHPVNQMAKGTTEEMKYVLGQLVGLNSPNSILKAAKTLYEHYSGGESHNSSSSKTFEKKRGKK
The experiment in a line: TTK enzyme inhibition, ADP-Glo kinase assay. Further details: purchased Signalchem T20-10G. Format: biochemical. The following applies: ATP 5 μM. The method in brief:
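Recombinant human TTK (7.5 ng) reacted with 5 μM ATP and MBP substrate (0.2 μg) for 4 h at 25° C in Tris-HCl pH 7.4, MgCl2, BSA, DTT buffer, compound at 0.000017–1 μM. ADP formation by ADP-Glo luminescence; IC50 (nM) relative to solvent control.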

From US12240844B2 (Voronoi, Inc., priority 2019, dated 2025) come the findings set out here.

Turning to `CNc1cc(Nc2ccc(C(=O)N3CC[C@@H](N4CCOCC4)C3)c3c2OCC3)nc2[nH]cc(C(F)(F)F)c12` [Example 214, (R)-(7-((4-(methylamino)-3-(trifluoromethyl)-1H-pyrrolo[2,3-b]pyridin-6-yl)amino)-2,3-dihydrobenzofuran-4-yl)(3-morpholinopyrrolidin-1-yl)methanone], in the experiment on MDA-MB-231 cell line, the 50% growth inhibitory concentration (GI50) – broadly, the concentration that inhibits growth by half – was in the range of 301 to 1000 nM. In addition, the IC50 (in general, the midpoint of a concentration-inhibition curve) in experiment [1] was less than 100 nM; against TTK it was 101 to 300 nM.
On the same counts, the results for `CNc1cc(Nc2ccc(C(=O)N3CC[C@H](N4CCOCC4)C3)c3c2OCC3)nc2[nH]cc(C(F)(F)F)c12` [Example 217, (S)-(7-((4-(methylamino)-3-(trifluoromethyl)-1H-pyrrolo[2,3-b]pyridin-6-yl)amino)-2,3-dihydrobenzofuran-4-yl)(3-morpholinopyrrolidin-1-yl)methanone] are 301 to 1000 nM, less than 100 nM and less than 100 nM.
On the same counts, the results for `O=C(c1ccc(Nc2cc(C3CC3)c3c(C(F)(F)F)c[nH]c3n2)c2c1OCCO2)N1CCOCC1` [Example 220, (8-((4-cyclopropyl-3-(trifluoromethyl)-1H-pyrrolo[2,3-b]pyridin-6-yl)amino)-2,3-dihydrobenzo[b] [1,4]dioxin-5-yl)(morpholino) methanone] are 301 to 1000 nM, 301 to 1000 nM and less than 100 nM.
On the same counts, the results for `COc1cc(S(=O)(=O)N2CCOCC2)ccc1Nc1cc(C2CC2)c2c(C#N)c[nH]c2n1` [Example 227, 4-cyclopropyl-6-((2-methoxy-4-(morpholinosulfonyl)phenyl)amino)-1H-pyrrolo[2,3-b]pyridine-3-carbonitrile] are 301 to 1000 nM, 301 to 1000 nM and less than 100 nM.
In the case of `CNc1cc(Nc2ccc(S(=O)(=O)N3CCC(N4CCOCC4)CC3)c3c2OCCO3)nc2[nH]cc(C(F)(F)F)c12` [Example 233, N^4-methyl-N^6-(8-((4-morpholinopiperidin-1-yl)sulfonyl)-2,3-dihydrobenzo [b] [1,4]dioxin-5-yl)-3-(trifluoromethyl)-1H-pyrrolo[2,3-b]pyridine-4,6-diamine], the GI50 in the experiment with MDA-MB-231 cell line was in the range of 301 to 1000 nM. The concentration for half-maximal inhibition (IC50) (in experiment [1]; against TTK) was 101 to 300 nM throughout.
As for `CNc1cc(Nc2ccc(C(=O)N3CCC(N4CCOCC4)CC3)c3c2OCC3)nc2[nH]cc(C(F)(F)F)c12` [Example 234, (7-((4-(methylamino)-3-(trifluoromethyl)-1H-pyrrolo[2,3-b]pyridin-6-yl)amino)-2,3-dihydrobenzofuran-4-yl)(4-morpholinopiperidin-1-yl)methanone], in the experiment on MDA-MB-231 cell line, the 50% growth inhibitory concentration (GI50) is 301 to 1000 nM. For the same molecule, the IC50 (in experiment [1]; at TTK) was less than 100 nM in each case.
`CNc1cc(Nc2ccc(C(=O)N3CCC(N4C[C@@H]5C[C@H]4CO5)CC3)c3c2OCC3)nc2[nH]cc(C(F)(F)F)c12` [Example 241, (4-((1S,4S)-2-oxa-5-azabicyclo[2.2.1]heptan-5-yl)piperidin-1-yl)(7-((4-(methylamino)-3-(trifluoromethyl)-1H-pyrrolo[2,3-b]pyridin-6-yl)amino)-2,3-dihydrobenzofuran-4-yl)methanone] yielded a GI50 in the experiment on MDA-MB-231 cell line of 301 to 1000 nM. For the same molecule, the IC50 (in experiment [1]; against TTK) was less than 100 nM each time.
`CCNc1cc(Nc2ccc(C(=O)N3CCC(N4C[C@H]5C[C@@H]4CO5)CC3)c3c2OCC3)nc2[nH]cc(C(F)(F)F)c12` [Example 244, (4-((1R,4R)-2-oxa-5-azabicyclo[2.2.1]heptan-5-yl)piperidin-1-yl)(7-((4-(ethylamino)-3-(trifluoromethyl)-1H-pyrrolo[2,3-b]pyridin-6-yl)amino)-2,3-dihydrobenzofuran-4-yl)methanone] yielded a GI50 in the experiment with MDA-MB-231 cell line of 301 to 1000 nM. The 50% inhibitory concentration (IC50) (in experiment [1]; on TTK) was less than 100 nM each time.
In turn, `CCNc1cc(Nc2ccc(C(=O)N3CCN(C4COC4)CC3)c3c2OCC3)nc2[nH]cc(C(F)(F)F)c12` [Example 248, (7-((4-(ethylamino)-3-(trifluoromethyl)-1H-pyrrolo[2,3-b]pyridin-6-yl)amino)-2,3-dihydrobenzofuran-4-yl)(4-(oxetan-3-yl)piperazin-1-yl)methanone] displayed a GI50 with MDA-MB-231 cell line of 301 to 1000 nM. Further, the IC50 (in experiment [1]; at TTK) was less than 100 nM throughout.
In the experiment on MDA-MB-231 cell line, `CCNc1cc(Nc2cc(F)c(S(=O)(=O)N3CCC(N4CCOCC4)CC3)cc2OC)nc2[nH]cc(C(F)(F)F)c12` [Example 266, N^4-ethyl-N^6-(5-fluoro-2-methoxy-4-((4-morpholinopiperidin-1-yl)sulfonyl)phenyl)-3-(trifluoromethyl)-1H-pyrrolo[2,3-b]pyridine-4,6-diamine] gave a GI50 of 301 to 1000 nM. The 50% inhibitory concentration (IC50) (in experiment [1]; against TTK) was 301 to 1000 nM each time.
